Literature values, collected in patent US10195165B2, “Methods of treating Prader-Willi syndrome” (Ovid Therapeutics Inc., priority 2015, dated 2019).

How the values were obtained:
serotonin 5HT2c receptor = target: T1, serotonin 5HT2c receptor (Homo sapiens, UniProt P28335); conditions: 1 μM captodiamine competing with a reference ligand
T1 construct: Novascreen
T1 sequence (P28335 33-458): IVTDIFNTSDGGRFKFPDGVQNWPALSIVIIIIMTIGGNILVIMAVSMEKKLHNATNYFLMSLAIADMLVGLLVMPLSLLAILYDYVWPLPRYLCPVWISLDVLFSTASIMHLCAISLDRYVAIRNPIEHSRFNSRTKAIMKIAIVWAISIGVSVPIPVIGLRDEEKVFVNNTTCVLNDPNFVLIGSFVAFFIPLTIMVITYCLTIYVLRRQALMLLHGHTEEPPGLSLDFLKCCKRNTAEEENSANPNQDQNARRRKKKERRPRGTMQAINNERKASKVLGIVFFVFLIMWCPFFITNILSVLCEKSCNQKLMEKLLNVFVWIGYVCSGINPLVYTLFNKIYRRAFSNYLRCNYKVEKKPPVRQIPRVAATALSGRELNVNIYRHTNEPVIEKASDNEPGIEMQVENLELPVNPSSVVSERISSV

Sigma 2 receptor = target: T2, Sigma 2 receptor (Homo sapiens, UniProt Q5BJF2); conditions: 1 μM captodiamine competing with a reference ligand
T2 construct: Novascreen
T2 sequence (Q5BJF2 whole entry, species assumed): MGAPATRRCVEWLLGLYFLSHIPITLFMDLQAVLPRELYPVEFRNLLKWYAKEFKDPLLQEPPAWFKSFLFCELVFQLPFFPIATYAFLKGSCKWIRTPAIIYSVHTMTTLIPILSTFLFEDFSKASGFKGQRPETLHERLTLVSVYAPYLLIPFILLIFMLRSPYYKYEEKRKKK

C57B16 mice [1] = conditions: 3 and 5 mg/kg intraperitoneal once daily for 7 days
C57B16 mice [2] = conditions: 3 and 5 mg/kg intraperitoneal once daily for 7 days; remark: listed apart in the source
C57B16 mice [3] = conditions: 3 and 5 mg/kg intraperitoneal once daily for 7 days; remark: listed apart in the source
C57B16 mice [4] = conditions: 3 mg/kg dose, intraperitoneal; one-tailed t-test
C57B16 mice [5] = conditions: 3 and 5 mg/kg intraperitoneal once daily for 7 days; remark: listed apart in the source
C57B16 mice [6] = conditions: 3 and 5 mg/kg intraperitoneal once daily for 7 days; remark: listed apart in the source
[7] = test system: Brain Derived Neurotrophic Factor (BDNF)
[8] = test system: Glial Derived Neurotrophic Factor (GDNF)
[9] = test system: subjects with mild to moderate anxiety weaned from benzodiazepine
[10] = test system: car driving ability of individuals; conditions: compared to lorazepam
Sigma 1 receptor [11] = target: T3, Sigma 1 receptor (Homo sapiens, UniProt Q99720)
T3 sequence (Q99720 whole entry, species assumed): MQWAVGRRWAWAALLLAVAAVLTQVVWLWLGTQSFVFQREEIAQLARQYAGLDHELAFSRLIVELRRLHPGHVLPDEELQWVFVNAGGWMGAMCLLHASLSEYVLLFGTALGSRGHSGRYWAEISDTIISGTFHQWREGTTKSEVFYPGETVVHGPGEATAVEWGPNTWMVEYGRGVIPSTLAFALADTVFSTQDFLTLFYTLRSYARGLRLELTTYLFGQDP

5-HT2C = target: T4, 5-HT2C (Homo sapiens, UniProt P28335)
T4 sequence (P28335 33-458): T1 sequence (P28335 33-458)

dopamine D3 [12] = target: T5, dopamine D3 (Homo sapiens, UniProt P35462)
Target sequence in this assay (P35462 whole entry): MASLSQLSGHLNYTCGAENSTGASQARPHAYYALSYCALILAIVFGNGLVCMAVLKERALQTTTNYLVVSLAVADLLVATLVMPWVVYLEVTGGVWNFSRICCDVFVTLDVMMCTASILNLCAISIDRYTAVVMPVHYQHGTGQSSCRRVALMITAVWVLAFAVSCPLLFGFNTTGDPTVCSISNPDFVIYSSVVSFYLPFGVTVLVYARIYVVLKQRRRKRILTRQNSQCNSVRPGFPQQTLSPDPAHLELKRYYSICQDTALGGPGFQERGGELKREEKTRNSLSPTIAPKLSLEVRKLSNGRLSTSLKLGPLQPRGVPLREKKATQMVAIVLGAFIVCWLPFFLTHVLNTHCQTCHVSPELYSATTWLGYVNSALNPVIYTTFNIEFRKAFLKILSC

[13] = test system: brain-derived neurotrophic factor (BDNF)
Sigma 1 receptor [14] = target: T3, Sigma 1 receptor; design: Novascreen; conditions: 1 μM captodiamine competing with a reference ligand
dopamine D3 [15] = target: T5, dopamine D3; design: Novascreen; conditions: 1 μM captodiamine competing with a reference ligand
Target sequence in this assay (P35462 whole entry, species assumed): as the sequence (P35462 whole entry) above

Compound: CCCCSc1ccc(C(SCCN(C)C)c2ccccc2)cc1 (stereo not drawn) [captodiamine, 2-[(4-butylsulfanylphenyl)-phenylmethyl]sulfanyl-N,N-dimethylethanamine]
- percent target inhibition, serotonin 5HT2c receptor (serotonin 5HT2c receptor): greater than 80%
- percent target inhibition, Sigma 2 receptor (Sigma 2 receptor): greater than 20%
- basal locomotion in the open-field paradigm (C57B16 mice [1]): no influence on basal locomotion
- time in the center of the arena (open-field) (C57B16 mice [1]): significantly more time in the center
- exploring the open arms of the elevated X-maze (C57B16 mice [2]): significantly longer periods exploring the open arms
- pre-pulse inhibition paradigm (C57B16 mice [3]): no effect on the pre-pulse inhibition paradigm
- time investigating objects during the training phase, Novel Object Recognition Task (C57B16 mice [4]): significantly longer investigating objects during the training phase
- water maze spatial learning task (C57B16 mice [5]): significant pro-cognitive action
- time to immobility in the forced swim test (C57B16 mice [6]): significant increase on time to immobility
- BDNF expression levels and/or activity, hippocampus ([7]; hippocampus): no effect
- levels of expression of BDNF, hypothalamus ([7]; hypothalamus): significantly increased
- BDNF expression levels and/or activity, prefrontal cortex ([7]; prefrontal cortex): no effect
- levels of expression of GDNF, hypothalamus ([8]; hypothalamus): not in either the hippocampus or the hypothalamus
- levels of expression of GDNF, prefrontal cortex ([8]; prefrontal cortex): significantly decreased
- Tyrer Benzodiazepine Withdrawal Symptom Questionnaire (BWSQ) score ([9]; 150 mg/d for 45 days versus placebo, primary outcome): statistically significant difference (p<0.0001; ANCOVA with repeated measures) between the two study groups in favor of captodiamine
- drowsiness score ([9]; 150 mg/d versus placebo): declined from D0
- self-reported anxiety scores ([9]; 150 mg/d versus placebo, weaning and assessment phases): anxiety scores evolved little during the weaning phase and then fell during the assessment phase
- re-emergence of anxiety or withdrawal symptoms after stopping captodiamine ([9]; after treatment stopped at 45 days): no re-emergence of anxiety or evidence for withdrawal symptoms
- severity of benzodiazepine withdrawal symptoms ([9]; compared to placebo, background summary): lower severity of benzodiazepine withdrawal symptoms
- concentration and dexterity when driving [10]: improved the concentration and dexterity
- tendency to drowsiness when driving [10]: without inducing a tendency to drowsiness
- activity at sigma-1 receptor (Sigma 1 receptor [11]): sigma-1 receptor agonist
- activity at 5-HT2C (5-HT2C): 5-HT2C antagonist
- activity at dopamine D3 (dopamine D3 [12]): dopamine D3 agonist
- BDNF protein levels, hypothalamus [13]: increase brain-derived neurotrophic factor (BDNF) protein levels in the hypothalamus
- percent target inhibition, Sigma 1 receptor (Sigma 1 receptor [14]): greater than 90%
- percent target inhibition, dopamine D3 receptor (dopamine D3 [15]): greater than 80%
